pIC50: −log10 of the molar value.
What was measured:
[1] = system: Math1 enhancer and minimal promoter Luciferase reporter in HEK cells; test: Math1 Luciferase reporter assay in HEK cells; format: cell-based, human; details: Homo sapiens, HEK293
How it was run: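 HEK cells stably carrying luciferase under the Math1 enhancer and minimal promoter were treated with compounds for 48 hours at 37° C, then lysed for luminescence, normalized to DMSO. Hits were defined as a 2-fold increase, with 1 μM retinoic acid as positive control. Follow-up used 0.1, 1 and 5 μM for 48 hours in 10% FBS DMEM, read by luciferase and real-time PCR.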

Inner ear stem cells = test: Hair cell differentiation of inner ear stem cells (Math1-GFP and myosin 7a co-labeling); format: cell-based; details: cells co-labeled with Math1-GFP and myosin 7a; control 1.6%
From the text: Inner ear stem cells were exposed to compound CP.-0000540, which was selected at random from the group of 110 positive compounds described in Example 2.
Hair cell differentiation was increased to 5.1% of total cells compared to 1.6% for control.

Math1 mRNA = Math1 mRNA expression by RT-PCR in HEK cells; format: cell-based, human; details: among the four randomly selected compounds
Protocol: Ten compounds, randomly selected from the group of 110 compounds identified in Example 2, were further evaluated, as follows. HEK cells were plated on 96 well plates at a density of 100000 cells per well. One day after plating, 0.1, 1, and 5 μM of each positive compound was added per well in a 10% fetal bovine serum (FBS) DMEM solution. Cells were then lysed 48 hours after addition of the compound and Math1 expression was analyzed using a luciferase reporter assay, as described above, and real-time PCR.
RNA was also isolated and Math1 transcripts were amplified using high-throughput RT-PCR.

[2] = LD50 (median lethal dose) determination; format: cell-based
From the text: IC50 is a measure of the effectiveness of a compound in inhibiting biological or biochemical function. LD50 is the amount of a compound required to kill half the members of a tested population.

## Clc1ccc2nc(-c3ccccc3)n(OCc3ccccc3Cl)c2c1 [CP-0000540, 6-chloro-1-(2-chlorobenzyloxy)-2-phenyl-1H-benzo[d]imidazole]
[1]; read-out: IC50
  pIC50: 5.89
[1]; read-out: Maximum (Fold DMSO)
  maximal fold induction: 2
Inner ear stem cells
  Hair cell differentiation: 5.1 % of total cells
Math1 mRNA
  increase in Math1 mRNA expression (ranking in words): highest increase
[2]
  LD50: >30 µM

From US11160808B2, “Compounds that enhance Atoh1 expression” (Massachusetts Eye & Ear Infirmary, priority 2008, dated 2021)
